Measurements: article PMC10987949, “Inhibition of HIV-1 release by ADAM metalloproteinase inhibitors” (Frontiers in Microbiology, 2024)

Columns and labels:
CD62L shedding [1] = assay: Soluble CD62L ELISA, anti-CD3/PHA stimulated PBMC or CD4 T cells; type: cell-based, human
Procedure: PBMC from de-identified healthy donors were obtained with informed consent from the Department of Transfusion Medicine, National Institutes of Health under Biological reagent Registry RD-14-IX-12 approved by NIH biological safety board. […] IL-2 was added at a final concentration of 20 U/mL. CD3 antibody okt3 was used at ~0.2 μg/mL final concentration. […] Supernatants were collected and assessed using either the CD62L or TNF-α Duo Set ELISA kit according to manufacturer’s instructions (R&D Systems, Inc.). The viability of cells treated with compounds was assessed by acridine orange / propidiom iodide (AO/PI Logosbio catalog F23001) staining using Luna-FL cell counter following the manufacture’s instruction.^2

CD62L shedding [2] = assay: Soluble CD62L ELISA, unstimulated PBMC; type: cell-based, human; details: non-stimulated cells, ELISA
Procedure: PBMC from de-identified healthy donors were obtained with informed consent from the Department of Transfusion Medicine, National Institutes of Health under Biological reagent Registry RD-14-IX-12 approved by NIH biological safety board. CD8-depleted PBMCs, either stimulated or non-stimulated with 10 μg/mL phytohaemagglutinin (PHA) or anti-CD3 antibody (with or without conjugated beads), were plated at 2×10^6 cells/ml in 48 well plates in RPMI 1640 + 10%FBS (R10) to a final volume of 1 mL in each well. IL-2 was added at a final concentration of 20 U/mL. CD3 antibody okt3 was used at ~0.2 μg/mL final concentration. […] Supernatants were collected and assessed using either the CD62L or TNF-α Duo Set ELISA kit according to manufacturer's instructions (R&D Systems, Inc.). The viability of cells treated with compounds was assessed by acridine orange / propidiom iodide (AO/PI Logosbio catalog F23001) staining using Luna-FL cell counter following the manufacture's instruction.^2 […] Supplemental Figure 1. CD62L shedding from unstimulated PBMC. A) Soluble CD62L in the supernatant of unstimulated PBMC was measured By ELISA (R&D systems, Inc) after 24 hour treatment in the presence of 10 μM of […]), aminopeptidase (AP) protease inhibitors, respectively, or their untreated controls. Statistics were calculated using unpaired parametric student t-test between individual treatment and DMSO control. […] B) Viability of PBMC treated with 10-500 μM of MMP inhibitors for 24hours. […] Untreated DMSO AEBSF 3,4-Dichloroisocouman Granzyme B Inhibitor II Granzyme B Inhibitor IV Aprotinin […] 3 4 CD62L shedding from unstimulated PBMC Soluble CD62L (ng/ml) Inhibitor Class […] GI254023X 10 GI254023X 100 […] GI254023X 1000 GW280264X 10 GW280264X 100 […] GW280264X 1000 Marimastat 10 Marimastat 100 Marimastat 250 […]

[3] = target: T1, recombinant HIV-1 protease (Human immunodeficiency virus type 1 group M subtype B, UniProt P04585); assay: HIV-1 protease fluorogenic substrate cleavage; type: biochemical; details: 100nM saquinavir or nelfinavir; MMP inhibitors up to 10uM
T1 construct: recombinant HIV-1 protease; purchased Sigma-Aldrich SRP2151
Procedure: HIV-1 protease enzymatic activity was assayed in black 96-well plates at room temperature using a Synergy_h1 fluorescent plate reader with 340 nm excitation and 490 nm emission wavelengths (BioTek). Each enzymatic reaction consisted of a mixture of 100 ng of recombinant HIV-1 protease (Sigma-Aldrich catalog SRP2151), 5 μM concentration of a fluorogenic substrate Arg-Glu(EDANS)-[…]DABCYL)-Arg (Sigma-aldrich catalog H6660), and various concentrations of inhibitor compounds in 100 μL of assay buffer (0.15 M sodium chloride, 1.0 mM EDTA, 1.0 mM DTT, 0.1 M sodium acetate, pH 5.0). The fluorescence of the cleavage reaction was continuously read at every 30 s for a total of 40 min.

HIV-1BAL = HIV-1BAL infection of CD8-depleted PBMC, FACS (intracellular p24, CD4, CD62L); type: cell-based; details: day 6; 0.5μM compounds
Description: The use of healthy human peripheral blood mononuclear cells (PBMC) is approved by the Department of Transfusion Medicine at the Clinical Center of National Institutes of Health. The use of PBMC from HIV-1 infected individuals for the study was approved under protocol #02-I-0202 by the Institutional Review Board (IRB) of National Institutes of Health with written informed consent from all donors. Peripheral blood mononuclear cells (PBMCs) from anonymous healthy donors were isolated by Ficoll-Paque gradient, and cultured in RPMI 1640 supplemented with 10% FBS, 1%Penicillin/streptomycin, 1% HEPES buffer and 20 U/mL IL-2 (culture media); and stimulated with 0.2 μg/mL anti-CD3 antibody (okt3) for 2 days. CD8^+ T cells were depleted prior to infection using the Stemcell CD8 positive selection kit according to manufacturer’s instructions. CD8-depleted PBMCs were plated at 2×10^6 cells/ml in 48-well plates in 1 mL culture media with various inhibitors for 60 min prior to the addition of ~80 TCID50 HIV-1BAL or HIV-1LAI. Inhibitors were replenished during media change every 3 days. The infections were proceeded with or without inhibitors for 6 days or otherwise specified number of days and then analyzed by FACS staining using fluorescent labeled CD4-BV510, CD62L-APC and CD3-PEC7 antibodies (BD Biosciences). Cells were then washed and permeabilized with CytoFix/CytoPerm (BD Biosciences) solution before intracellular staining for HIV p24 antigen using FITC conjugated anti-p24 antibody clone KC57 (Beckman Coulter, catalog 6604665). All assays were performed with cell viabilities >80%. Replication competent HIV-1 viruses were obtained from the NIH AIDS Reagent Program^4, and expanded by infecting activated CD8-depleted PBMCs, and TCID50 was determined by p24 ELISA.

PBMC = PBMC viability (AO/PI staining); type: cell-based, human; details: for PBMC viability at 24hr post treatment: 10-500 μM of MMP inhibitors for 24hours
Procedure: PBMC from de-identified healthy donors were obtained with informed consent from the Department of Transfusion Medicine, National Institutes of Health under Biological reagent Registry RD-14-IX-12 approved by NIH biological safety board. CD8-depleted PBMCs, either stimulated or non-stimulated with 10 μg/mL phytohaemagglutinin (PHA) or anti-CD3 antibody (with or without conjugated beads), were plated at 2×10^6 cells/ml in 48 well plates in RPMI 1640 + 10%FBS (R10) to a final volume of 1 mL in each well. IL-2 was added at a final concentration of 20 U/mL. CD3 antibody okt3 was used at ~0.2 μg/mL final concentration. Compounds were prepared in appropriate solvents according to the manufacturer’s instructions, diluted to working concentrations using RPMI 1640 + 10%FBS (R10), and added to the cell cultures for 6–24 h for CD62L shedding, and 48 h for TNF-α release. Supernatants were collected and assessed using either the CD62L or TNF-α Duo Set ELISA kit according to manufacturer’s instructions (R&D Systems, Inc.). The viability of cells treated with compounds was assessed by acridine orange / propidiom iodide (AO/PI Logosbio catalog F23001) staining using Luna-FL cell counter following the manufacture’s instruction.^2

[4] = 10 μM compound, stimulated cells, ELISA

Molecule	effect on HIV protease cleavage of fluorogenic substrate [3]	Shedding inhibition Stimulated (CD62L shedding [1]; [4])	Shedding inhibition Non-stim. (CD62L shedding [2]; 10 μM compound)	PBMC viability at 24hr post treatment (PBMC)	other results
CCOCOC[C@H](C[C@H](C)C(=O)NO)NC(=O)c1ccc(Oc2ccccc2)cc1 [ONO-4817]					Shedding inhibition Stimulated (CD62L shedding [1]; 100 μM compound, stimulated cells, ELISA): +/− (<20); Shedding inhibition Non-stim. (CD62L shedding [2]; 100 μM compound): + (20–50)
CC(C)(C)NC(=O)[C@@H]1C[C@@H]2CCCC[C@@H]2CN1C[C@@H](O)[C@H](Cc1ccccc1)NC(=O)[C@H](CC(N)=O)NC(=O)c1ccc2ccccc2n1 [saquinavir]	suppressed the substrate cleavage by HIV protease				
Cc1cc(CCC[C@H](CC(=O)NO)C(=O)N[C@H](C(=O)N[C@H](C)c2ccccc2)C(C)(C)C)ccc1-c1ccccc1 [UK-356618, (2R)-N1-[(1S)-2,2-Dimethyl-1-({[(1R)-1-phenylethyl]amino}carbonyl)propyl]-2-{3-[(3-methyl-4-phenyl)-phenyl]propyl}-(N4-hydroxy)butanediamide]		− (0% inhibition)	− (0% inhibition)		
Cc1c(O)cccc1C(=O)N[C@@H](CSc1ccccc1)[C@H](O)CN1C[C@H]2CCCC[C@H]2C[C@H]1C(=O)NC(C)(C)C [nelfinavir]	suppressed the substrate cleavage by HIV protease				effect on CD62L shedding from stimulated PBMC (CD62L shedding [1]; titration of HAART compounds, concentration range tested): did not inhibit CD62L shedding; p24 staining in HIV-1BAL infection of PBMC (HIV-1BAL): no significant staining; PBMC viability at day 3 post treatment (PBMC; 10uM): significant reduced cell viability
CNC(=O)[C@@H](NC(=O)[C@H](CC(C)C)[C@H](O)C(=O)NO)C(C)(C)C [Marimastat]				No significant decrease in the viability	inhibition at 10 µM (CD62L shedding [1]; Homo sapiens, 10 μM compound, stimulated cells, ELISA): > 50%; inhibition at 10 µM (CD62L shedding [2]; Homo sapiens, PBMC, 10 μM compound, read-out: Shedding inhibition Non-stim.): > 50%; PBMC viability at day 6 post infection with HIV-1 BAL (PBMC; 50uM): significant loss in cell viability
GW280264X		+/− (<20)	+/− (<20)	No significant decrease in the viability	
